Measured values published in patent US11180474B2 (BRISTOL-MYERS SQUIBB COMPANY, priority 2016, dated 2021).

The compounds below were run against T1, human TLR7 (Homo sapiens, UniProt Q9NYK1) (assay: TLR7 inhibition reporter assay (HEK-Blue cells, SEAP reporter, gardiquimod stimulation)). Conditions: HEK-Blue cells overexpressing human TLR7, gardiquimod 7.5 μM.
T1 construct: host or cells: HEK-Blue cells
T1 sequence (Q9NYK1 27-1049): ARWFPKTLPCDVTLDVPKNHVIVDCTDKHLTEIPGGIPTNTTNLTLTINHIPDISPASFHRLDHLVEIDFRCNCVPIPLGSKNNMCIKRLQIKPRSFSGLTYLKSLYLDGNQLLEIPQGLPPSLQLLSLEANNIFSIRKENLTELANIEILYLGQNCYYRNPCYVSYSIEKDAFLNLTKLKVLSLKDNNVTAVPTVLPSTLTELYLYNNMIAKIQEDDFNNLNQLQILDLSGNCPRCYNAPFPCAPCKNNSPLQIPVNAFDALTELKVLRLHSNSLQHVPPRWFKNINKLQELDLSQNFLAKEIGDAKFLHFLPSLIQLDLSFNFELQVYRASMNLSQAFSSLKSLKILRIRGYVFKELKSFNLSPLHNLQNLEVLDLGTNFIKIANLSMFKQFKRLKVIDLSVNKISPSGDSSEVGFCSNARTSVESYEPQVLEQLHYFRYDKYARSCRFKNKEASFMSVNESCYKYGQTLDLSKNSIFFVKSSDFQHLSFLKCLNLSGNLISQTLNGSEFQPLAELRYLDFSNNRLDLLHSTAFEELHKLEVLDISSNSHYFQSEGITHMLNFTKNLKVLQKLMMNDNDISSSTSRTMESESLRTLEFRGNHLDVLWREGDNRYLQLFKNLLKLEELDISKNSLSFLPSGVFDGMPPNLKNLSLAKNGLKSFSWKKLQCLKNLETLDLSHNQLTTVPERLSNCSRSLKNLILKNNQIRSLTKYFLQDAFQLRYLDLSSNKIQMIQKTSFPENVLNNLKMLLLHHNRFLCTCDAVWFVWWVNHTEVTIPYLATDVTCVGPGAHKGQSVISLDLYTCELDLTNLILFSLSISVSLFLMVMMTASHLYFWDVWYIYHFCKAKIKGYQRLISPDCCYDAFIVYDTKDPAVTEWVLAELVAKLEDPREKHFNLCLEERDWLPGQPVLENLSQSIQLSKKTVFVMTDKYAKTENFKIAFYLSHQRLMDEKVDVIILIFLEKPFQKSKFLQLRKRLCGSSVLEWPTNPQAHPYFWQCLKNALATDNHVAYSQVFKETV
Format: cell-based
Outline: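 SEAP readout via HEK-Blue Detection medium after 22 h at 37 °C, 5% CO2 defines inhibition, normalized between agonist-plus-DMSO wells and a reference inhibitor. Compound dose range 0.05 nM–50 μM; TLR7 cells at 15,000/well (gardiquimod), TLR8 at 20,000/well (R848).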
An IC50 of 23 nM was found for `COc1ccc(-c2[nH]c3ccc(C4CCN(C(=O)CN(C)CCO)CC4)cc3c2C(C)C)cc1OC` [Example 242, 1-(4-(2-(3,4-dimethoxyphenyl)-3-isopropyl-1H-indol-5-yl)piperidin-1-yl)-2-((2-hydroxyethyl)(methyl)amino)ethan-1-one] in this work.
An IC50 of 55 nM was found for `COc1ccc(-c2[nH]c3ccc(C4CCN(C(=O)CN5CCC(CO)CC5)CC4)cc3c2C(C)C)cc1OC` [Example 243, 1-(4-(2-(3,4-dimethoxyphenyl)-3-isopropyl-1H-indol-5-yl)piperidin-1-yl)-2-(4-(hydroxymethyl)piperidin-1-yl)ethan-1-one] in this work.
An IC50 of 6 nM was found for `COc1ccc(-c2[nH]c3ccc(C4CCN(C(=O)CN5CCC(N(C)C)CC5)CC4)cc3c2C(C)C)cc1OC` [Example 244, 1-(4-(2-(3,4-dimethoxyphenyl)-3-isopropyl-1H-indol-5-yl)piperidin-1-yl)-2-(4-(dimethylamino)piperidin-1-yl)ethan-1-one] in this work.
An IC50 of 26 nM was found for `COc1ccc(-c2[nH]c3ccc(C4CCN(C(=O)CNC5CCC(C(C)(C)O)CC5)CC4)cc3c2C(C)C)cc1OC` (centres unmarked) [Example 245, 1-(4-(2-(3,4-dimethoxyphenyl)-3-isopropyl-1H-indol-5-yl)piperidin-1-yl)-2-((4-(2-hydroxypropan-2-yl)cyclohexyl)amino)ethan-1-one] in this work.
An IC50 of 11 nM was found for `COc1ccc(-c2[nH]c3ccc(C4CCN(C(=O)CNC5CCC(O)CC5)CC4)cc3c2C(C)C)cc1OC` (centres unmarked) [Example 246, 1-(4-(2-(3,4-dimethoxyphenyl)-3-isopropyl-1H-indol-5-yl)piperidin-1-yl)-2-((4-hydroxycyclohexyl)amino)ethan-1-one] in this work.
An IC50 of 40 nM was found for `CCN(CC)C(=O)C1CCCN(CC(=O)N2CCC(c3ccc4[nH]c(-c5ccc(OC)c(OC)c5)c(C(C)C)c4c3)CC2)C1` (centres unmarked) [Example 247, 1-(2-(4-(2-(3,4-dimethoxyphenyl)-3-isopropyl-1H-indol-5-yl)piperidin-1-yl)-2-oxoethyl)-N,N-diethylpiperidine-3-carboxamide] in this work.
An IC50 of 33 nM was found for `CCN(CC)C(=O)C1CCCN(CC(=O)N2CCC(c3ccc4[nH]c(-c5ccc(OC)c(OC)c5)c(C(C)C)c4c3)CC2)C1` (centres unmarked) [Example 248, 1-(2-(4-(2-(3,4-dimethoxyphenyl)-3-isopropyl-1H-indol-5-yl)piperidin-1-yl)-2-oxoethyl)-N,N-diethylpiperidine-3-carboxamide] in this work.
An IC50 of 21 nM was found for `COc1ccc(-c2[nH]c3ccc(C4CCN(C(=O)CN5CCCC(CO)C5)CC4)cc3c2C(C)C)cc1OC` (centres unmarked) [Example 249, 1-(4-(2-(3,4-dimethoxyphenyl)-3-isopropyl-1H-indol-5-yl)piperidin-1-yl)-2-(3-(hydroxymethyl)piperidin-1-yl)ethan-1-one] in this work.
An IC50 of 372 nM was found for `COc1ccc(-c2[nH]c3ccc(C4CCN(C(=O)CNC[C@@H](F)C(C)(C)O)CC4)cc3c2C(C)C)cc1OC` [Example 251, (R)-1-(4-(2-(3,4-dimethoxyphenyl)-3-isopropyl-1H-indol-5-yl)piperidin-1-yl)-2-((2-fluoro-3-hydroxy-3-methylbutyl)amino) ethan-1-one] in this work.
An IC50 of 10 nM was found for `COc1ccc(-c2[nH]c3ccc(C4CCN(C(=O)C[C@H](C)N)CC4)cc3c2C(C)C)cc1OC` [Example 253, (S)-3-amino-1-(4-(2-(3,4-dimethoxyphenyl)-3-isopropyl-1H-indol-5-yl)piperidin-1-yl)butan-1-one] in this work.
An IC50 of 11 nM was found for `CNCC(=O)N1CCC(c2ccc3[nH]c(-c4ccc(OC)c(OC)c4)c(C(C)C)c3c2)CC1` [Example 256, 1-(4-(2-(3,4-dimethoxyphenyl)-3-isopropyl-1H-indol-5-yl)piperidin-1-yl)-2-(methylamino)ethan-1-one] in this work.
An IC50 of 18 nM was found for `COc1ccc(-c2[nH]c3ccc(C4CCN(Cc5cncn5C)CC4)cc3c2C(C)C)cc1OC` [Example 258, 2-(3,4-dimethoxyphenyl)-3-isopropyl-5-(1-((1-methyl-1H-imidazol-5-yl)methyl)piperidin-4-yl)-1H-indole] in this work.
An IC50 of 40 nM was found for `COc1ccc(-c2[nH]c3ccc(C4CCN(Cc5cnn(C)c5)CC4)cc3c2C(C)C)cc1OC` [Example 259, 2-(3,4-dimethoxyphenyl)-3-isopropyl-5-(1-((1-methyl-1H-pyrazol-4-yl)methyl)piperidin-4-yl)-1H-indole] in this work.
An IC50 of 61 nM was found for `COc1ccc(-c2[nH]c3ccc(C4CCN(Cc5nccn5C)CC4)cc3c2C(C)C)cc1OC` [Example 262, 2-(3,4-dimethoxyphenyl)-3-isopropyl-5-(1-((1-methyl-1H-imidazol-2-yl)methyl)piperidin-4-yl)-1H-indole] in this work.
An IC50 of 48 nM was found for `COc1ccc(-c2[nH]c3ccc(C4CCN(Cc5cnc(C)[nH]5)CC4)cc3c2C(C)C)cc1OC` [Example 266, 2-(3,4-dimethoxyphenyl)-3-isopropyl-5-(1-((2-methyl-1H-imidazol-5-yl)methyl)piperidin-4-yl)-1H-indole] in this work.
An IC50 of 31 nM was found for `COc1ccc(-c2[nH]c3ccc(C4CCN(Cc5cnc[nH]5)CC4)cc3c2C(C)C)cc1OC` [Example 268, 5-(1-((1H-imidazol-5-yl)methyl)piperidin-4-yl)-2-(3,4-dimethoxyphenyl)-3-isopropyl-1H-indole] in this work.
An IC50 of 83 nM was found for `CCN(CC)C(=O)C1CCCN(C(=O)CN2CCC(c3ccc4[nH]c(-c5ccc(OC)c(OC)c5)c(C(C)C)c4c3)CC2)C1` (centres unmarked) [Example 272, 1-(2-(4-(2-(3,4-dimethoxyphenyl)-3-isopropyl-1H-indol-5-yl)piperidin-1-yl)acetyl)-N,N-diethylpiperidine-3-carboxamide] in this work.
An IC50 of 7 nM was found for `COc1ccc(-c2[nH]c3ccc(C4CCN(CC(=O)NC5CCN(C(C)C)CC5)CC4)cc3c2C(C)C)cc1OC` [Example 273, 2-(4-(2-(3,4-dimethoxyphenyl)-3-isopropyl-1H-indol-5-yl)piperidin-1-yl)-N-(1-isopropylpiperidin-4-yl)acetamide] in this work.
An IC50 of 68 nM was found for `COc1ccc(-c2[nH]c3ccc(C4CCN(CC(=O)N5CCN(C)CC5)CC4)cc3c2C(C)C)cc1OC` [Example 274, 2-(4-(2-(3,4-dimethoxyphenyl)-3-isopropyl-1H-indol-5-yl)piperidin-1-yl)-1-(4-methylpiperazin-1-yl) ethan-1-one] in this work.
An IC50 of 17 nM was found for `COc1ccc(-c2[nH]c3ccc(C4CCN(CC(=O)N5CCCC(CO)C5)CC4)cc3c2C(C)C)cc1OC` (centres unmarked) [Example 275, 2-(4-(2-(3,4-dimethoxyphenyl)-3-isopropyl-1H-indol-5-yl)piperidin-1-yl)-1-(3-(hydroxymethyl)piperidin-1-yl)ethan-1-one] in this work.
An IC50 of 17 nM was found for `COc1ccc(-c2[nH]c3ccc(C4CCN(CC(=O)NCCO)CC4)cc3c2C(C)C)cc1OC` [Example 276, 2-(4-(2-(3,4-dimethoxyphenyl)-3-isopropyl-1H-indol-5-yl)piperidin-1-yl)-N-(2-hydroxyethyl) acetamide] in this work.
An IC50 of 16 nM was found for `COc1ccc(-c2[nH]c3ccc(C4CCN(CC(=O)NCCCO)CC4)cc3c2C(C)C)cc1OC` [Example 277, 2-(4-(2-(3,4-dimethoxyphenyl)-3-isopropyl-1H-indol-5-yl)piperidin-1-yl)-N-(3-hydroxypropyl)acetamide] in this work.
An IC50 of 8 nM was found for `COc1ccc(-c2[nH]c3ccc(C4CCN(CC(=O)N5CC[C@H](O)C5)CC4)cc3c2C(C)C)cc1OC` [Example 278, (S)-2-(4-(2-(3,4-dimethoxyphenyl)-3-isopropyl-1H-indol-5-yl)piperidin-1-yl)-1-(3-hydroxypyrrolidin-1-yl)ethan-1-one] in this work.
An IC50 of 495 nM was found for `COc1ccc(-c2[nH]c3ccc(C4CCN(CC(=O)N[C@H]5CC[C@H](C(C)(C)O)CC5)CC4)cc3c2C(C)C)cc1OC` [Example 279, 2-(4-(2-(3,4-dimethoxyphenyl)-3-isopropyl-1H-indol-5-yl)piperidin-1-yl)-N-((1r,4r)-4-(2-hydroxypropan-2-yl)cyclohexyl)acetamide] in this work.
An IC50 of 39 nM was found for `COc1ccc(-c2[nH]c3ccc(C4CCN(C(=O)CN5CCC[C@H](C(=O)N6CCN(C(C)=O)CC6)C5)CC4)cc3c2C(C)C)cc1OC` [Example 284, (S)-2-(3-(4-acetylpiperazine-1-carbonyl)piperidin-1-yl)-1-(4-(2-(3,4-dimethoxyphenyl)-3-isopropyl-1H-indol-5-yl)piperidin-1-yl)ethan-1-one] in this work.
An IC50 of 55 nM was found for `COc1ccc(-c2[nH]c3ccc(C4CCN(C(=O)CN5CCC[C@H](C(=O)NC(C)C)C5)CC4)cc3c2C(C)C)cc1OC` [Example 285, (S)-1-(2-(4-(2-(3,4-dimethoxyphenyl)-3-isopropyl-1H-indol-5-yl)piperidin-1-yl)-2-oxoethyl)-N-isopropylpiperidine-3-carboxamide] in this work.
